Data: patent US11684068B2, “Herbicidal compositions and methods of use thereof” (Valent U.S.A. LLC, priority 2018, dated 2023)

Tests used:
[1] = Wet sieve test and crystal examination after accelerated aging (long-term storage stability); format: physicochemical
Method: Variations of Composition 1 from Table 1, above, were subjected to extreme temperatures to determine long-term storage stability including the likelihood of large crystals growing that cause clogging of the spray nozzle by performing the wet sieve test. Specifically, these compositions containing various amounts of polyvinyl alcohol and ammonium sulfate were subjected to 2 weeks at 54° C. and 4 weeks at 50° C. accelerated aging. The wet sieve test typically was performed soon after the samples were brought back to room temperature using the following protocol:
A bottle containing the composition was emptied onto a 100-mesh sieve positioned on top of a receiver. Water was added to the bottle, shaken to rinse, and the rinse solution was poured onto the mesh to wash off the material. The rinsing step was repeated until visible quantity of residue on the mesh remained constant. If necessary, additional, minimum streams of water were introduced by way of a squirt or spray bottle to further clear the mesh. Typically, about 250 milliliters of water was used for about 40 grams of sample. The mesh was then dried to a constant weight and observed under a microscope.
Variations of Composition 2 from Table 1, above, were subjected to several conditions to determine long-term storage stability including % wet sieve test residue. Specifically, these compositions contained 0% or 2.8% w/w of polyvinyl alcohol and 0% or 2.8% w/w ammonium sulfate or 0% or 2.8% or 5.6% w/w potassium citrate and were subjected to 2 weeks at 54° C. and 4 weeks at 50° C.
Variations of Composition 3 from Table 1 above were subjected to several conditions to determine long-term storage stability including % wet sieve test residue. Specifically, these compositions contained 0 or 2.8% w/w of polyvinyl alcohol and 0% or 2.8% w/w ammonium sulfate and were subjected to 2 weeks at 54° C.
Variations of Composition 4 from Table 1, above, were subjected to several conditions to determine long-term storage stability including % wet sieve test residue. Specifically, these compositions contained 0% or 2.8% w/w of polyvinyl alcohol and 0% or 2.8% w/w ammonium sulfate and were subjected to 2 weeks at 54° C.
Compositions 5-7 from Table 1, above, were subjected to several conditions to determine long-term storage stability including % wet sieve test residue. Specifically, these compositions contained 1.4% or 1.5% w/w of polyvinyl alcohol and 2.0% or 2.8% w/w ammonium sulfate and were subjected to 2 weeks at 54° C. and 4 weeks at 50° C.

[2] = Metribuzin solubility in salt solutions; format: physicochemical; settings: saturated in ammonium sulfate, ammonium acetate and potassium citrate tribasic monohydrate solutions; FIG. 1
Method: Metribuzin is partially soluble in water. Because of its partial solubility metribuzin grows crystals in aqueous solutions. It is a discovery of the present invention that, if water solubility of metribuzin is lowered, then crystal growth is inhibited or reduced. To determine if salts could lower the water solubility of metribuzin, metribuzin was added to the saturation point to several concentrations of ammonium sulfate, ammonium acetate and potassium citrate tribasic monohydrate solutions. Results can be seen in FIG. 1.

[3] = variations of Composition 2, 54° C. 2 weeks and 50° C. 4 weeks

SMILES	effect of additive on crystal growth and sieve residue [1, 3]	effect of additive on crystal growth and sieve residue ([1]; variations of Composition 3, 54° C. 2 weeks)	effect of additive on crystal growth and sieve residue ([1]; variations of Composition 4, 54° C. 2 weeks)	water solubility of metribuzin versus salt concentration [2]
O=C([O-])CC(O)(CC(=O)[O-])C(=O)[O-].[K+].[K+].[K+] [Potassium citrate]	completely inhibited crystal growth			
N.N.O=S(=O)(O)O [Ammonium sulfate]	reduced crystal growth to small crystals	reduced the amount of crystals isolated on the sieve substantially	inhibited crystal growth and lowered sieve residue	
CSc1nnc(C(C)(C)C)c(=O)n1N [metribuzin]				negatively correlated
